Test results published in patent US20210284742A1, “METHODS OF TREATING OR PREVENTING MUCORMYCOSIS” (University of Maryland, Baltimore, priority 2018, published 2021).

Key:
[1] = tested on: A549 cells infected with M. circinelloides; assay: M. circinelloides-induced damage of A549 cells (LDH assay); format: cell-based, human; conditions: 25 μM Mifepristone overnight and/or 25 μM Gefitinib 1 h, 24 h infection (FIG. 14)
R. delemar [2] = assay: Neutropenic mouse model of pulmonary mucormycosis, survival; format: in vivo, mice; conditions: for protection from pulmonary mucormycosis (survival): 10 mg/kg for 5 consecutive days starting 4 h post infection; for protection from pulmonary mucormycosis, delayed administration: treatment delayed for 30 h post infection, administered alone
Protocol: Murine models of Mucormycosis. Male ICR mice (20-25 g from Envigo) were immunosuppresed by cyclophosphamide (200 mg/kg administered intraperotenually [i.p]) and cortisone acetate (500 mg/kg, adminstered subcutaneously) given on days −2, +3, and +9 relative to infection. […] To control for bacterial infection, immunosuppressed mice received 50 mg/L Baytrial (enrofloxacin: Bayer, Leverkusen, Germany) ad libitum on Day −3 thorough Day 0, after which Baytril was replaced with daily ceftazidime (5 mg/mouse) treatment adminstered subcutaneously through day+13 days post infection. Mice were infected with 2.5×10^5 spores of R. delemar 99-880 in 25 μL PBS given intratracheally as previously described (Luo G, Gebremariam T, Lee H, French S W, Wiederhold N P, Patterson T F, Filler S G, Ibrahim A S. 2013. Efficacy of liposomal amphotericin B and posaconazole in intratracheal models of murine mucormycosis. Antimicrobial agents and chemotherapy 57:3340-7). […] Placebo mice received DMA:PEG300. Survival of mice served as the primary endpoint with moribund mice humanely euthanized. To determine effect of treatment on tissue fungal burden mice were immunosuppressed and infected as above. Gefitinib treatment started 4 post infection and continued through Day +3. On Day +4, mice were sacrificed and lungs and brains, representing primary and secondary target organs (Luo G, Gebremariam T, Lee H, French S W, Wiederhold N P, Patterson T F, Filler S G, Ibrahim A S. 2013. Efficacy of liposomal amphotericin B and posaconazole in intratracheal models of murine mucormycosis. Antimicrobial agents and chemotherapy 57:3340-7), were collected and processed for tissue fungal burden by qPCR (Ibrahim A S, Bowman J C, Avanessian V, Brown K, Spellberg B, Edwards J E, Jr., Douglas C M. 2005. Caspofungin inhibits Rhizopus oryzae 1,3-beta-D-glucan synthase, lowers burden in brain measured by quantitative PCR, and improves survival at a low but not a high dose during murine disseminated zygomycosis. Antimicrobial agents and chemotherapy 49:721-7.) Values are expressed as Log10 spore equivalents per gram tissue.
Statistical Analyses. In vitro experiments were performed in triplicate on two or three separate days. Data were expressed as median±interquartile range. Treatment groups were compared to controls using the Wilcoxon rank-sum test and P values <0.05 were considered significant. For the murine studies, survival of mice was analyzed using the Log Rank test, whereas differences in tissue fungal burden were analyzed by the Wilcoxon Rank Sum test using Graph pad Prism 6. P values of <0.05 were considered significant.

[3] = tested on: A549 cells infected with R. oryzae; assay: R. oryzae-induced damage of A549 cells (LDH assay); format: cell-based, human; conditions: 25 μM Mifepristone overnight and/or 25 μM Gefitinib 1 h, 24 h infection (FIG. 14)
Protocol: R. delemar-induced A549 cell damage was quantified using the Pierce LDH assay, with slight modifications to the manufacturer's protocol. Briefly, A549 cells were grown in 96-well tissue culture plates for 18 to 24 h. […] For controls, host cells were incubated with the appropriate amount of diluent used to reconstitute the in parallel. After 24 h of incubation at 37° C., 50 μl of the cell culture supernatant was collected from uninfected, infected, and fungus-only control wells and transferred to a 96-well plate to assay for LDH activity. Lysis buffer was added to all infected wells, and the mixture was incubated for 45 min at 37° C. After lysis, 50 μl of cell culture supernatant was transferred to a 96-well plate and used for the LDH assay kit per the protocol. LDH release was calculated as follows: % cytotoxicity=[(experimental release−fungal cell spontaneous control−host cell spontaneous control)/(host cell maximum control−fungal cell maximum control−host cell spontaneous control)]×100. LDH is a cytosolic enzyme but will be released into the cell culture medium upon cell membrane damage. The amount of extracellular LDH is proportional to the amount of cell damage.

PGR = PGR translocation to the nucleus during R. delemar infection (confocal microscopy); format: cell-based, human; conditions: A549 cells pretreated with Gefitinib 1 h, R. delemar infection 2 h (FIG. 16)
Protocol: Translocation of host PGR was visualized using the Zeiss LSM Duo confocal microscopy system. 12-mm glass coverslips in 12 well dishes were seeded with A549 alveolar epithelial cells and infected with 2×10^5 R. delemar or R. oryzae that have been incubated in F12K+10% FBS at 37° C. for 2 h. After a 2 h incubation at 37° C., cells were washed with HBSS and fixed with 3% paraformaldehyde. Cells were incubated with anti-PGR (Aviva MS-196-P1, recognizes B) for 1 h or overnight in 0.1% BSA for 1 hour. Coverslips were washed and counterstained with Alexa Fluor 546-labeled goat anti-rabbit or Alexa Fluor 488-goat anti-mouse. After washing, the coverslip will be mounted on a glass slide with a drop of ProLong Gold antifade reagent (Molecular Probes) and viewed by confocal fluorescent microscopy.

R. delemar [4] = assay: Growth / germination of R. delemar in the absence of host cells; format: cell-based
[5] = neutropenic mice infected intratracheally, 10 mg/kg i.p. for 5 consecutive days starting 4 h post infection

In the case of `COc1cc2ncnc(Nc3ccc(F)c(Cl)c3)c2cc1OCCCN1CCOCC1` [Gefitinib], the M. circinelloides-induced damage [1] is reported as “significantly decreased”, the “protection from pulmonary mucormycosis (survival)” value (R. delemar [2]) is reported as “protects mice from pulmonary mucormycosis” and the “protection from pulmonary mucormycosis (survival)” value (R. delemar [2]; listed as gefitinib) is reported as “protected”. For the same compound, the 18-day survival (R. delemar [2]; delayed treatment beginning 30 h post infection for 6 consecutive days, 10 mg/kg gefitinib, 20 mg/kg posaconazole or both) was roughly 30%, the median survival time (R. delemar [2]; [5]) was greater than 21 days and the “mice survived the infection by Day 21” value (R. delemar [2]; [5]) was 55%. For the same compound, the “protection from pulmonary mucormycosis, delayed administration” value (R. delemar [2]) was “protects mice from pulmonary mucormycosis”, the “protection from pulmonary mucormycosis, delayed administration” value (R. delemar [2]; listed as gefitinib) was “protected mice from pulmonary mucormycosis” and the R. oryzae-induced damage [3] was “significantly decreased”. For the same compound, the “translocation of PGR from the cytosol to the nucleus” value (PGR) was “reduced” and the “R. delemar mycelial growth” value (R. delemar [4]) was “no effect”.
